Several values for one entry are separate records, joined by “and”; a condition that tells them apart may be missing. Identical values can stand only once. Like-named read-outs stand apart in the source and are kept apart here.
Columns and labels:
[1] = Spermine-templated DCL of building blocks 1-4; conditions: four building blocks DCL with spermine; 5% mol
Description: (§1) Building blocks 2 and 3 equipped with carboxylate moieties to establish interactions with the protonated amine groups of the spermine were allowed to equilibrate at pH 7.8 and 6 °C (Fig. 8a). As expected in our control experiment, the major component in the absence of spermine was the linear tetramer (2)2(3)2. After the addition of spermine, the linear tetramer “decomposed” in order to form mainly the cyclic tetramer of (2)4, and the (3)2 dimer (Fig. 8a). As it was reported, several studies determined that the spermine was threaded through the macrocycle fixing the configuration to a highly symmetric stereoisomer of (2)4[36]. […] The precise composition of the DCL (with and without spermine), was assessed by measuring the relative peak area (RPA). Indeed, the normalized change of RPA was used to quantify the spermine influence in the outcome (Supplementary Fig. 42)[46]. The same template (spermine) was tested in our reference DCL of four building blocks (1–4) in the absence and presence of Secox (Fig. 8b). […] Additionally, two different templates were tested to confirm the absence of conflict between selenocystine and the templating effect. Spermidine and NADPH were introduced in our 4 building blocks DCL (1–4) in the absence and presence of Secox, leading to the amplification of different species and getting the same results as the non-catalyzed DCLs (Supplementary Figs. 44, 45, Supplementary Tables 7–10, and Supplementary Methods).
The mixture was stabilized in 96 h. […] The mixture was stabilized after 24 h. […] It was stabilized in 24 h. […] DCL was equilibrated in 96 h. DCLs were performed without stirring at 6 °C and analyzed by HPLC-MS.

glucose oxidase (GOx) = glucose oxidase (GOx) (Aspergillus niger, UniProt P13006); assay: GOx tolerance to Secox, Trp emission fluorescence; set-up: purchased Sigma Aldrich
glucose oxidase (GOx), sequence (P13006 17-605): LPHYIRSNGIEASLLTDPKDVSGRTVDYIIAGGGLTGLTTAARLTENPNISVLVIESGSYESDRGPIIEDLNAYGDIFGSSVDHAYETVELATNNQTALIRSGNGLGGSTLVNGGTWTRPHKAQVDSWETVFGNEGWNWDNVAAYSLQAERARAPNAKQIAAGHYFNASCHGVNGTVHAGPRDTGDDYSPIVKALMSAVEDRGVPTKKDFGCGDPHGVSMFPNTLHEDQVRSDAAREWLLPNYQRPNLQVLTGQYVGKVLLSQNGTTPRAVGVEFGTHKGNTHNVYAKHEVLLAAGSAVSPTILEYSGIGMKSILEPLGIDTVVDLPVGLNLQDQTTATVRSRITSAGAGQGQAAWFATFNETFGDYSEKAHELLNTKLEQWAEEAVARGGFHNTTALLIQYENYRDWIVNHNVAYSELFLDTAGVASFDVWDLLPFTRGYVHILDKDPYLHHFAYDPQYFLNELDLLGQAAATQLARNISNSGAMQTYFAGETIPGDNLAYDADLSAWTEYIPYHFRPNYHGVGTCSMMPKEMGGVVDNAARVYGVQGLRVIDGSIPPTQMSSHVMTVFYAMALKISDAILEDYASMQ

[2] = for Kobs: 2.5% (v/v) DMSO, 190 μM 3, Tris pH 7.8, 6 °C
[3] = Slow DCL system of building blocks 5-8, equilibration by HPLC-MS; conditions: slow DCL 5-8; 5% mol (18.3 μM); 20% (v/v) DMSO, pH 7.8, 6 °C; control 192 h
Description: To broaden the scope of selenocystine we tested this catalyst in a slow disulfide-exchange system. The DCL comprised 4 building blocks (5–8)[37], three of them being aliphatic thiols with pKa values around 9 to slow down the exchange reaction (Fig. 7a). Due to solubility issues, a 20% (v/v) DMSO was added and the reaction mixture was diluted. […] The different oligomers were identified by HPLC-MS (Supplementary Figs. 21–30).
Control DCL. […] The DCLs were analyzed until stabilization.

[4] = Spermine-templated DCL of building blocks 2 and 3; conditions: two building blocks DCL with spermine; 5% (mol); control 96 h
Description: as §1
The DCL was stabilized at 96 h. […] The mixture was stabilized after 24 h. […] The DCL was stabilized at 96 h. […] The DCL was analyzed in 96 h after equilibration. DCLs were performed without stirring at 6 °C and analyzed by HPLC-MS.

scrambled RNase A [5] = target: T1, scrambled RNase A (Bos taurus, UniProt P61823); assay: Folding of scrambled RNase A at pH 5.4 (cCMP hydrolysis); conditions: in <2 h
T1 sequence (P61823 27-150): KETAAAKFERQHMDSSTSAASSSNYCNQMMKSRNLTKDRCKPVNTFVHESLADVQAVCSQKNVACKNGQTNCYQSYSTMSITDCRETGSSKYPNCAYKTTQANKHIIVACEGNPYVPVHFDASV

[6] = Equilibration of the thiol-disulfide DCL of building blocks 1-4 followed by HPLC-MS
Description: DMSO percentage is 2.5% v/v. […] DCLs were analyzed by HPLC-MS until equilibration without stirring at 6 °C.
Control DCL. […] DMSO percentage is 2.5% v/v. Regarding Secox catalyzed DCL, different stocks of Secox were carried out in order to study the percentages of Secox. […] The DCLs were prepared at 6 °C without stirring and analyzed in several hours until the complete stabilization.

scrambled RNase A [7] = target: T1, scrambled RNase A; assay: Folding of scrambled RNase A at pH 7.8 (cCMP hydrolysis); conditions: for V0: Secox / GSH 1 mM/5 mM

Structure (SMILES): N[C@@H](C[Se][Se]C[C@H](N)C(=O)O)C(=O)O [Secox, selenocystine]
- DCL equilibration time [1]: 24 h
- Wavelenght (nm) of GOx Trp fluorescence emission (Supplementary Figure 47 b) (glucose oxidase (GOx); 1 % Secox): 329 nm
- Wavelenght (nm) of GOx Trp fluorescence emission (Supplementary Figure 47 b) (glucose oxidase (GOx); 2.5 % Secox): 329 nm
- Wavelenght (nm) of GOx Trp fluorescence emission (Supplementary Figure 47 b) (glucose oxidase (GOx); 5% Secox): 329 nm
- Wavelenght (nm) of GOx Trp fluorescence emission (Supplementary Figure 47 b) (glucose oxidase (GOx); 7.5 % Secox): 329 nm
- Wavelenght (nm) of GOx Trp fluorescence emission (Supplementary Figure 47 b) (glucose oxidase (GOx); 10 % Secox): 329 nm
- Wavelenght (nm) of GOx Trp fluorescence emission (Supplementary Figure 47 b) (glucose oxidase (GOx); 30 % Secox): 329 nm
- Wavelenght (nm) of GOx Trp fluorescence emission (Supplementary Figure 47 b) (glucose oxidase (GOx); 50 % Secox): 329 nm
- Wavelenght (nm) of GOx Trp fluorescence emission (Supplementary Figure 47 b) (glucose oxidase (GOx); 100 % Secox): 329 nm
- effect on GOx stability (Trp emission maximum) (glucose oxidase (GOx); whole range of concentrations measured, up to 100 % mol): No shift was observed
- Kobs ([2]; 1% (mol)): 0.091 ± 0.002 M⁻¹ s⁻¹
- time until total completion of homodimerization ([2]; 1% mol): 3 days
- time until total completion of homodimerization ([2]; 2.5% mol): 2 days
- Kobs ([2]; 5% (mol) catalyst, uncatalyzed 0.014 ± 0.001): 0.259 ± 0.009 M⁻¹ s⁻¹
- acceleration over the uncatalyzed reaction ([2]; 5% Secox): 18 fold
- time until total completion of homodimerization ([2]; 5% mol): 0.917 days and 1 days
- time until total completion of homodimerization ([2]; 10% mol): 0.75 days
- DCL equilibration time [3]: 60 h
- DCL equilibration time [4]: 24 h
- yield of native RNase A (scrambled RNase A [5]): 75%
- DCL equilibration time ([6]; 190 μM as fifth building block, Tris 20 mM pH 7.8, 6 °C, control 4 days): 24 h
- DCL equilibration time ([6]; 1% mol (5.7 μM), pH 7.8, 6 °C, control 96 h): 72 h
- DCL equilibration time ([6]; 2.5% mol (14.25 μM), pH 7.8, 6 °C, control 96 h): 48 h
- DCL equilibration time ([6]; 5% mol (28.5 μM), pH 7.8, 6 °C, control 96 h): 24 h
- DCL equilibration time ([6]; 10% mol (57 μM), pH 7.8, 6 °C, control 96 h): 24 h
- effect on scrambled RNase A folding (scrambled RNase A [7]; 20 mM Secox / 100 mM GSH, pH 7.8): partial inactivation of the protein
- V0 (scrambled RNase A [7]; 33 min): 73.3333 min⁻¹
- V0 (scrambled RNase A [7]; 65 min): 91.6667 min⁻¹
- V0 (scrambled RNase A [7]; 95 min): 91.6667 min⁻¹
- V0 (scrambled RNase A [7]; 123 min): 100 min⁻¹
- V0 (scrambled RNase A [7]; 188 min): 101.667 min⁻¹
- V0 (scrambled RNase A [7]; 232 min): 98.3333 min⁻¹
- V0 (scrambled RNase A [7]; 356 min): 105 min⁻¹
- V0 (scrambled RNase A [7]; 1440 min): 101.667 min⁻¹
- yield of the correctly folded enzyme (scrambled RNase A [7]; pH 7.8, 1 mM Secox/5 mM GSH, first 65 min): 92%
- increase of refolding rate by replacing GSSG with Secox (scrambled RNase A [7]; scrambled RNase A): five times
